“And” between values parts separate entries of the source, which are not always exact repeats. Identical values can stand only once.
Assays:
[1] = system: Escherichia coli (ATCC 10535); assay: Microbicidal activity, European Standard EN1040 suspension test; format: cell-based; settings: for E. coli cfu/mL (residual cell count): room temperature
Method: (§1) Microbicidal activity of different anionic siloxanes with carboxyl groups is tested according to European Standard EN1040. A bacterial suspension with a cell count of about 10^7 cfu/ml (cfu stands for colony-forming units) is contacted with appropriate concentrations of the specific substances and the residual cell count is determined after incubation times of 5 and 30 min. at room temperature under continuos stirring. Staphylococcus aureus (ATCC 5638, American Type Culture Collection, Manassas, USA) is tested as gram+ (gram positive) and Escherichia coli (ATCC 10535, American Type Culture Collection) as gram-organism. The results are given as a log reduction at each incubation time in comparison to a water control in the following tables (a) and (b): […]

[2] = system: Staphylococcus aureus (ATCC 5638); assay: as above; format: cell-based; settings: for S. aureus cfu/mL (residual cell count): room temperature
Method: as §1

[3] = system: Aspergillus niger (DSM 1957/ATCC 6275); assay: Fungicidal activity, European Standard EN12175 spore suspension test; format: cell-based; settings: test conc. 1%; for log reduction A. niger: vs water control
Method: (§2) Fungicidal activity is tested according to European Standard EN12175. A fungal spore suspension with a spore cell count of about 10^6 cfu/ml is contacted with appropriate concentrations of the specific substances (Examples) mentioned in the tables below and the residual spore cell count is determined after incubation times of 30 and 60 min at room temperature under continuous stirring. Penicillium funiculosum (DSM 1960), Aspergillus niger (DSM 1957/ATCC 6275) and Aureobasidium pullulans (DSM 2404) are tested as important mold strains. DSM refers to microorganisms obtainable under the numbers given at the DSMZ (Deutsche Sammlung von Mikroorganismen and Zellkulturen GmbH, Braunschweig, Germany). ATCC numbers refer to organisms obtainable from the American Type Culture Collection (see Example 6). The results are given as a log reduction at each incubation time in comparison to a water control in table (d): […]

[4] = system: Aureobasidium pullulans (DSM 2404); assay: as above; format: cell-based; settings: test conc. 1%; for log reduction A. pull.: vs water control
Method: as §2

[5] = system: Penicillium funiculosum (DSM 1960); assay: as above; format: cell-based; settings: test conc. 1%; for log reduction P. funic.: vs water control
Method: as §2

[6] = system: Staphylococcus aureus cells; assay: Antiadhesive efficacy on coated PMMA test specimen, antibody colorimetric assay; format: cell-based; settings: specimen coated from 0.50% solution in EtOH; S. aureus suspension 1 hour at 30°
Method: The antiadhesive efficacy (inhibition of adhesion of microorganisms) is tested after temporarily attaching various compounds to PMMA test specimen by incubation of the test specimen in a 0.5% solution in ethanol. The coated specimen are then dried and afterwards incubated in a suspension of Staphylococcus aureus cells for 1 hour at 30° under shaking. After some washing steps, the attached cells are detected via binding of a primary antibody and—after incubation of night and again washing steps—binding of a secondary antibody with alkaline phosphatase attached. The adhesion is then determined in a colorimetric assay in comparison to an untreated PMMA test specimen, which is calculated as showing 100% adhesion.

S. aureus ATCC 6538 = assay: Antibacterial efficacy on treated polypropylene non-woven, modified AATCC-100; format: cell-based, Staphylococcus aureus
Method: (§3) A solution of Example 1 in a solvent (tetrahydrofurane and/or acetone) is prepared with a concentration of 1 or 2% of the compound of Example 1. This solution is sonicated for 1 min to ensure complete dissolution of the test acid compound. Then polypropylene non-woven (10×10 cm) is dipped into the solution (100 ml) and left under sonication for 1 min. The non-woven is taken out of the solution and dried on air at room temperature for some hours. This non-woven is then used for microbial testing as follows:
(§4) The efficacy of Example 1 is tested after application onto polypropylene non-woven material according to a modified AATCC-100 standard for assessing antibacterial activity on textiles. Overnight cultures of two test bacteria are contacted with the treated non-woven material by pipetting a diluted suspension onto the surface of the material. The non-woven is then incubated for 24 hours at 37° C., and then the cell count is determined by elution of the materials into a neutralizing medium, dilution series and plate count technique. As in the basic test for microbicidal activity (Example 6), Staphylococcus aureus is used as the gram+ and Escherichia coli as the gram-organism.
(§5) The results are given in tables (f) and (g) as cell count directly after inoculation and after 24 hours incubation time in comparison to an untreated polypropylene non-woven as the blank.

E. coli ATCC 10536 = assay: as above; format: cell-based, Escherichia coli
Method: as §3, §4, §5

[7] = 1% in EtOH (ethanolic stock solution), 5 min
[8] = 1% in EtOH (ethanolic stock solution), 30 min
[9] = 1% in H2O (stock solution in water), 5 min
[10] = 1% in H2O (stock solution in water), 30 min
[11] = test concentration 1%, 5 min, vs water control
[12] = test concentration 1%, 30 min, vs water control
[13] = test concentration 1000 ppm, 5 min
[14] = test concentration 1000 ppm, 30 min

SMILES: C[Si]1(CCCC(CC(=O)O)C(=O)O)O[Si](C)(CCCC(CC(=O)O)C(=O)O)O[Si](C)(CCCC(CC(=O)O)C(=O)O)O[Si](C)(CCCC(CC(=O)O)C(=O)O)O1 (centres unmarked) [Example 1]
- E. coli cfu/mL [1, 7]: 1.37E+06 cfu/mL
- log reduction E. coli [1, 7]: 1.2
- E. coli cfu/mL [1, 8]: 0.00E+00 cfu/mL
- log reduction E. coli [1, 8]: >5
- E. coli cfu/mL [1, 9]: 4.62E+06 cfu/mL and 5.03E+06 cfu/mL
- log reduction E. coli [1, 9]: <1
- E. coli cfu/mL [1, 10]: 1.97E+06 cfu/mL and 2.09E+06 cfu/mL
- log reduction E. coli [1, 10]: 1.1
- E. coli cfu/mL (residual cell count) ([1]; test concentration 1%, 5 min): 0.00E+00 cfu/mL
- log reduction E. coli [1, 11]: >5
- E. coli cfu/mL (residual cell count) ([1]; test concentration 1%, 30 min): 0.00E+00 cfu/mL
- log reduction E. coli [1, 12]: >5
- S. aureus cfu/mL [2, 7]: 3.45E+06 cfu/mL
- log reduction S. aureus [2, 7]: 1
- S. aureus cfu/mL [2, 8]: 1.10E+04 cfu/mL
- log reduction S. aureus [2, 8]: 3.3
- S. aureus cfu/mL [2, 9]: 6.98E+06 cfu/mL and 8.19E+06 cfu/mL
- log reduction S. aureus [2, 9]: <1
- S. aureus cfu/mL [2, 10]: 9.55E+05 cfu/mL and 1.12E+06 cfu/mL
- log reduction S. aureus [2, 10]: 1.3
- S. aureus cfu/mL (residual cell count) ([2]; test concentration 1%, 5 min): 1.20E+04 cfu/mL
- log reduction S. aureus [2, 11]: 3.1
- S. aureus cfu/mL (residual cell count) ([2]; test concentration 1%, 30 min): 0.00E+00 cfu/mL
- log reduction S. aureus [2, 12]: >5
- A. niger cfu/mL (residual spore cell count) ([3]; 30 min): 1.1E+06 cfu/mL
- log reduction A. niger ([3]; 30 min): <1
- A. niger cfu/mL (residual spore cell count) ([3]; 1 h): 1.2E+06 cfu/mL
- log reduction A. niger ([3]; 1 h): <1
- A. pull. cfu/mL (residual spore cell count) ([4]; 30 min): 2.1E+05 cfu/mL
- log reduction A. pull. ([4]; 30 min): <1
- A. pull. cfu/mL (residual spore cell count) ([4]; 1 h): 2.2E+05 cfu/mL
- log reduction A. pull. ([4]; 1 h): <1
- P. funic. cfu/mL (residual spore cell count) ([5]; 30 min): 4.0E+06 cfu/mL
- log reduction P. funic. ([5]; 30 min): <1
- P. funic. cfu/mL (residual spore cell count) ([5]; 1 h): 3.8E+06 cfu/mL
- log reduction P. funic. ([5]; 1 h): <1
- results on PMMA (adhesion; untreated PMMA = 100% adhesion) [6]: 85%
- activity against S. aureus (in words) (S. aureus ATCC 6538; applied at 2%): full activity
- activity against S. aureus (in words) (S. aureus ATCC 6538; non-woven treated with 1%): some but inconsistent activity
- S. aureus cell count, 24 hours (S. aureus ATCC 6538; polypropylene nonwoven treated with 2% solution, 24 hours at 37° C.): <100 cfu/sample
- activity against E. coli (in words) (E. coli ATCC 10536; applied at 2%): high activity
- activity against E. coli (in words) (E. coli ATCC 10536; non-woven treated with 1%): no activity

SMILES: C[Si]1(CCCP(=O)(O)O)O[Si](C)(CCCP(=O)(O)O)O[Si](C)(CCCP(=O)(O)O)O[Si](C)(CCCP(=O)(O)O)O1 (centres unmarked) [Example 2]
- E. coli cfu/mL [1, 13]: 1.50E+04 cfu/mL
- log reduction E. coli [1, 13]: 3.2
- E. coli cfu/mL [1, 14]: 0.00E+00 cfu/mL
- log reduction E. coli [1, 14]: >5
- S. aureus cfu/mL [2, 13]: 1.42E+03 cfu/mL
- log reduction S. aureus [2, 13]: 4.3
- S. aureus cfu/mL [2, 14]: 0.00E+00 cfu/mL
- log reduction S. aureus [2, 14]: >5

SMILES: C[Si](C)(C)O[Si](C)(C)O[Si](C)(CCCC(CC(=O)O)C(=O)O)O[Si](C)(C)C (centres unmarked) [Example 4]
- E. coli cfu/mL (residual cell count) ([1]; test concentration 1%, 5 min): 1.03E+05 cfu/mL
- log reduction E. coli [1, 11]: 2.3
- E. coli cfu/mL (residual cell count) ([1]; test concentration 1%, 30 min): 0.00E+00 cfu/mL
- log reduction E. coli [1, 12]: >5
- S. aureus cfu/mL (residual cell count) ([2]; test concentration 1%, 5 min): 3.22E+06 cfu/mL
- log reduction S. aureus [2, 11]: <1
- S. aureus cfu/mL (residual cell count) ([2]; test concentration 1%, 30 min): 1.67E+04 cfu/mL
- log reduction S. aureus [2, 12]: 2.9
- A. niger cfu/mL (residual spore cell count) ([3]; 30 min): 1.5E+04 cfu/mL
- log reduction A. niger ([3]; 30 min): 2.0
- A. niger cfu/mL (residual spore cell count) ([3]; 1 h): 1.3E+04 cfu/mL
- log reduction A. niger ([3]; 1 h): 2.1
- A. pull. cfu/mL (residual spore cell count) ([4]; 30 min): 1.3E+05 cfu/mL
- log reduction A. pull. ([4]; 30 min): <1
- A. pull. cfu/mL (residual spore cell count) ([4]; 1 h): 9.0E+04 cfu/mL
- log reduction A. pull. ([4]; 1 h): <1
- P. funic. cfu/mL (residual spore cell count) ([5]; 30 min): 4.8E+05 cfu/mL
- log reduction P. funic. ([5]; 30 min): 1.0
- P. funic. cfu/mL (residual spore cell count) ([5]; 1 h): 1.14E+05 cfu/mL
- log reduction P. funic. ([5]; 1 h): 1.6
- results on PMMA (adhesion; untreated PMMA = 100% adhesion) [6]: 46%

SMILES: C[Si](C)(CCCC(CC(=O)O)C(=O)O)O[Si](C)(C)O[Si](C)(C)O[Si](C)(C)O[Si](C)(C)O[Si](C)(C)O[Si](C)(C)O[Si](C)(C)O[Si](C)(C)O[Si](C)(C)O[Si](C)(C)O[Si](C)(C)CCCC(CC(=O)O)C(=O)O (centres unmarked) [Example 5]
- E. coli cfu/mL (residual cell count) ([1]; test concentration 1%, 5 min): 1.54E+07 cfu/mL
- log reduction E. coli [1, 11]: <1
- E. coli cfu/mL (residual cell count) ([1]; test concentration 1%, 30 min): 3.58E+06 cfu/mL
- log reduction E. coli [1, 12]: <1
- S. aureus cfu/mL (residual cell count) ([2]; test concentration 1%, 5 min): 1.34E+07 cfu/mL
- log reduction S. aureus [2, 11]: <1
- S. aureus cfu/mL (residual cell count) ([2]; test concentration 1%, 30 min): 7.86E+06 cfu/mL
- log reduction S. aureus [2, 12]: <1
- A. niger cfu/mL (residual spore cell count) ([3]; 30 min): 7.0E+05 cfu/mL
- log reduction A. niger ([3]; 30 min): <1
- A. niger cfu/mL (residual spore cell count) ([3]; 1 h): 6.0E+05 cfu/mL
- log reduction A. niger ([3]; 1 h): <1
- A. pull. cfu/mL (residual spore cell count) ([4]; 30 min): 3.5E+05 cfu/mL
- log reduction A. pull. ([4]; 30 min): <1
- A. pull. cfu/mL (residual spore cell count) ([4]; 1 h): 3.4E+05 cfu/mL
- log reduction A. pull. ([4]; 1 h): <1
- P. funic. cfu/mL (residual spore cell count) ([5]; 30 min): 2.5E+06 cfu/mL
- log reduction P. funic. ([5]; 30 min): <1
- P. funic. cfu/mL (residual spore cell count) ([5]; 1 h): 2.7E+06 cfu/mL
- log reduction P. funic. ([5]; 1 h): <1
- results on PMMA (adhesion; untreated PMMA = 100% adhesion) [6]: 50%

Reference: patent US20100234323A1, “Antimicrobial Acids and Salts” (priority 2006, published 2010)
